Measured values reported in patent US8114862B2, “TGR5 modulators and methods of use thereof” (Intercept Pharmaceuticals, Inc., priority 2008, dated 2012).
Read-outs that look alike come from different tables or passages of the source. Marks after values point to notes of the source that are not given here.

Experiments:
[1] = biological target: T1, FXR (Homo sapiens, UniProt Q96RI1); experiment: Direct comparison 6-ethyl vs 6-methyl 23-methyl cholic acid: FXR; assay type: biochemical
T1 sequence (Q96RI1 262-486 limits assumed): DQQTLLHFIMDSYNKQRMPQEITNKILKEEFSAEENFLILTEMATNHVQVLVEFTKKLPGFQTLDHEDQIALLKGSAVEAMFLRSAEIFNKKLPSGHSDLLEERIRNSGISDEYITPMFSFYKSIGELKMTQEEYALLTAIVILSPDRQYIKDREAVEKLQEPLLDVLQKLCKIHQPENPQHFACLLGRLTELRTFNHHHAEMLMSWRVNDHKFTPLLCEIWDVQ

[2] = biological target: T2, TGR5 (Homo sapiens, UniProt Q8TDU6); experiment: Direct comparison 6-ethyl vs 6-methyl 23-methyl cholic acid: TGR5; assay type: cell-based
T2 sequence (Q8TDU6 1-330): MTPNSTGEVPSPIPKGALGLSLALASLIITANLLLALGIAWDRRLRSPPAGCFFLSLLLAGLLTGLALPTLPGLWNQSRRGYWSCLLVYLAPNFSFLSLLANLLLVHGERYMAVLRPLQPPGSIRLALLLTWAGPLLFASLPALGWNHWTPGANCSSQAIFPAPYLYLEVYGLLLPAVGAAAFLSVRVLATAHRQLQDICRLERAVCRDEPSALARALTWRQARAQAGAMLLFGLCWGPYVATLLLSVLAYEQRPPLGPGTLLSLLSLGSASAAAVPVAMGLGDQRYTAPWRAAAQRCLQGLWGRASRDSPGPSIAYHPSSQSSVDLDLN

[3] = Choleretic effect (bile flow) in bile fistula rat, id and iv infusion; assay type: in vivo; settings: 1 (μmol/min)/kg bw over 1 h
[4] = Biliary secretion and metabolism in bile fistula rat, id and iv infusion; settings: rat, in vivo, 1 μmol/kg/min
[5] = in vitro; settings: human
[6] = Previous study of OA tolerability in animals; assay type: in vivo
Experimental: Therefore, OA was administered at the dose of 50 mg/kg/d in this study.

[7] = values from literature; cited from earlier work
[8] = biological target: bovine serum albumin (Bos taurus, UniProt P02769); settings: values from literature; cited from earlier work
[9] = values from literature; cited from earlier work; remark: listed apart in the source
[10] = biological target: T2, TGR5; experiment: CRE-driven luciferase reporter assay in TGR5-transfected CHO cells; assay type: cell-based; design: host or cells: CHO cells
[11] = biological target: T3, hFXR (Homo sapiens, UniProt Q96RI1); experiment: FXR luciferase reporter assay in COS1 cells; assay type: cell-based
T3 construct: expressed in transfected cells; host or cells: COS1 cells

[12] = biological target: human FXR (Homo sapiens, UniProt Q96RI1); experiment: FRET recruitment of SRC-1 peptide to human FXR, cell-free ELiSA
[13] = biological target: T2, TGR5; experiment: TGR5 receptor in vitro assay (Table 1); assay type: cell-based

Sequence of bovine serum albumin (P02769 25-607): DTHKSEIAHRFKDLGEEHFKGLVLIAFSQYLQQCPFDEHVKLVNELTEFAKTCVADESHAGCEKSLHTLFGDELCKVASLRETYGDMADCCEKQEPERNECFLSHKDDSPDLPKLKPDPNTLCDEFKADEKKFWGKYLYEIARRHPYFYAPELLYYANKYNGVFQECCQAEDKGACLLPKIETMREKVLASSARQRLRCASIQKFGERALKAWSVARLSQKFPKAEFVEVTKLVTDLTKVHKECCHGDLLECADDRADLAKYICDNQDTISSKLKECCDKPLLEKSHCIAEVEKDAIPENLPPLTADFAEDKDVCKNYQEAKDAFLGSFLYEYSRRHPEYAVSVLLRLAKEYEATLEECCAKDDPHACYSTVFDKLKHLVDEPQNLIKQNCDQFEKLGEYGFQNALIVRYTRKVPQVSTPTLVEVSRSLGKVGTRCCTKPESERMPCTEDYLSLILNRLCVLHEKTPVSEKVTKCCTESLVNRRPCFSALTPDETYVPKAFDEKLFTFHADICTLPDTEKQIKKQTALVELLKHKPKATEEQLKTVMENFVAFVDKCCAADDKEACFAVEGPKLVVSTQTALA
T3 sequence (Q96RI1 whole entry): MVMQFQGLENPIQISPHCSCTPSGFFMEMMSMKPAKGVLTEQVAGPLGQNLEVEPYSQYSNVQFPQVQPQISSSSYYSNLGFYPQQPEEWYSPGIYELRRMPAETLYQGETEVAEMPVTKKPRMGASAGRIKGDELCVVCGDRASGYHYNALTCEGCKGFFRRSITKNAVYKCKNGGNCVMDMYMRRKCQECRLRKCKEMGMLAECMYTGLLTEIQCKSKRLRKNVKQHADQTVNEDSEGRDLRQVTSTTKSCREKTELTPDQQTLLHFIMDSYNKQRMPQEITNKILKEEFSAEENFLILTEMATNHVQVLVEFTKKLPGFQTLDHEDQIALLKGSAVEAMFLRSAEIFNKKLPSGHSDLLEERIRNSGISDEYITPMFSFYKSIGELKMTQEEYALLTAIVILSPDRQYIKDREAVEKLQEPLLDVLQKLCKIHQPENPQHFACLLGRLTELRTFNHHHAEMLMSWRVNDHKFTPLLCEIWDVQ
T3 sequence (P28700 whole entry partner): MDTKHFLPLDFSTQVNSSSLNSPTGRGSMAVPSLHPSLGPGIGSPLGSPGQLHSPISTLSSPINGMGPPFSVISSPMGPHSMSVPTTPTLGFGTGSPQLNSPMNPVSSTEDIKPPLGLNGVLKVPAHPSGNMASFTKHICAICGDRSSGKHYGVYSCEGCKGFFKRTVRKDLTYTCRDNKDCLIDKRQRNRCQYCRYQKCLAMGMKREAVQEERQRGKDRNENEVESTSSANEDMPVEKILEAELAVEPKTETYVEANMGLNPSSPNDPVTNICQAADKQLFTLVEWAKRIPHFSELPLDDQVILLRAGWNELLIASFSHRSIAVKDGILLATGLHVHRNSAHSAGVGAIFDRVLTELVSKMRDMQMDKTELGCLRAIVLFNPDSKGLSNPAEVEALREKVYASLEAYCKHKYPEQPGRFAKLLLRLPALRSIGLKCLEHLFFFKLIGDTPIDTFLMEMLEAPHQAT
Sequence of human FXR (Q96RI1 whole entry): as the sequence (Q96RI1 whole entry) above

Compound `C[C@H]1[C@@H](O)[C@@H]2[C@H](C[C@H](O)[C@]3(C)[C@@H]([C@H](C)C[C@H](C)C(=O)O)CC[C@@H]23)[C@@]2(C)CC[C@@H](O)C[C@@H]12` [Ih3, 23(S)-Methyl-6α-methyl-3α,7α,12α-trihydroxy-5β-cholan-24-oic acid] has an EC50 ([1]; first experiment, read-out: FXR I exp EC50) of 10 µM, an EC50 ([1]; second experiment, read-out: FXR II exp EC50) of 7.8 µM and an EC50 ([2]; first experiment, read-out: TGR5 I exp EC50) of 1700 nM. The EC50 ([2]; second experiment, read-out: TGR5 II exp EC50) was 3000 nM.

With `CC[C@H]1[C@@H](O)[C@@H]2[C@H](C[C@H](O)[C@]3(C)[C@@H]([C@H](C)C[C@@H](C)C(=O)O)CC[C@@H]23)[C@@]2(C)CC[C@@H](O)C[C@@H]12` [Ii3e, 6α-ethyl-(23R)-methyl-3α,7α,12α trihydroxy-5β-cholan-24-oic acid] the “SV0: maximum bile secretion rate” value ([3]; id infusion) was 81 ± 8 (μL/min)/kg bw, the “SV0: maximum bile secretion rate” value ([3]; iv infusion) was “(90 ± 5) (μL/min)/kg bw” and the fraction unbound at 4 h [4] was 0.68 ± 0.08. The fraction unbound at 4 h ([4]; iv) was 0.65.

For `CC/C(=C(\c1ccccc1)c1ccc(OCCN(C)C)cc1)c1ccccc1` [Tamoxifen], the EC50 at 4 h ([5]; HepG2 cells) was 47 µM.

`CN[C@@H]1C[C@H]2O[C@@](C)([C@@H]1OC)n1c3ccccc3c3c4c(c5c6ccccc6n2c5c31)C(=O)NC4` [Staurosporine] gave an EC50 at 4 h [5] of 15 µM.

For `CC1(C)CC[C@]2(C(=O)O)CC[C@]3(C)C(=CC[C@@H]4[C@@]5(C)CC[C@H](O)C(C)(C)[C@@H]5CC[C@]43C)[C@@H]2C1` [OA, oleanolic acid], the toxicity ([6]; 100 mg/kg/day) was “some signs of toxicity” and the tolerability ([6]; lower dose) was “well tolerated”.

In the case of `C[C@H](CCC(=O)NCCS(=O)(=O)O)[C@H]1CC[C@H]2[C@@H]3[C@H](O)C[C@@H]4C[C@H](O)CC[C@]4(C)[C@H]3CC[C@]12C` [TCDCA], the “CMC […] Na+” value [7] is listed as 3.0* mM, the “Albumin Binding” value [8] is listed as 70* % and the “LogPA- (1-octanol-water partition coefficient, ionized species)” value [9] is listed as 0.9*.

For `C[C@H]1[C@@H](O)C2C3CC[C@H]([C@H](C)C[C@H](C)C(=O)O)[C@@]3(C)[C@@H](O)CC2[C@@]2(C)CC[C@@H](O)C[C@@H]12` (stereo partly drawn), the “EC50 ratio (TGR5/FXR)” value [10] was 0.035, the “TGR5 Efficacy” value ([10]; % of activity vs. 10 μM LCA) was 75.6% and the EC50 ([10]; Table 3) was 800 nM. The “FXR Efficacy” value ([11]; % of activity vs. 10 μM 6ECDCA) was 0.76% and the EC50 ([11]; Table 3) was 22.8 µM.

For `C[C@H]1[C@@H](O)C2C3CC[C@H]([C@H](C)CCC(=O)O)[C@@]3(C)CCC2[C@@]2(C)CC[C@@H](O)C[C@@H]12` (stereo partly drawn) [Compound 6α-MeCDCA], the EC50 [12] was 210 nM, the “FXR Data Efficacy” value [12] was 148% and the EC50 [13] was 370 nM. The “TGR5 Data Efficacy” value [13] was 119%.

For `C[C@H](CCC(=O)NCCS(=O)(=O)O)[C@H]1CC[C@H]2[C@@H]3[C@@H](O)C[C@@H]4C[C@H](O)CC[C@]4(C)[C@H]3CC[C@]12C` [TUDCA], the “CMC […] Na+” value [7] is listed as 2.2* mM, the “Albumin Binding” value [8] is listed as 67* % and the “LogPA- (1-octanol-water partition coefficient, ionized species)” value [9] is listed as 1.1*.
